Non-standard residues stand in square brackets, D forms with d. No end group written: not given here.
How the values were obtained:
[1] = tested on: Caspase 3/7 in C2C12 cells; assay: Caspase 3/7 Activity in C2C12 Cells; type: cell-based, mouse; conditions: peptides 10 μM, 24 hours, relative to 0.1% DMSO control
Method: The effect of the peptides on cell death/survival can be assessed using a caspase-3/7 assay in cultured cells such as mouse myoblast cells. Peptides were initially prepared as 10 mM stock in DMSO, diluted to 1 mM in H2O, and used at a final concentration of 10 μM (0.1% DMSO). […] Staurosporine (Abcam, Cambridge, Mass.) was dissolved at 10 mM in DMSO as a stock solution. Caspase-Glo 3/7 Assay Reagent was purchased from Promega (Madison, Wis.). C2C12 cell line was purchased from American Type Culture Collection (Manassas, Va.). C2C12 cells were grown in DMEM supplemented with 20% FBS with 100 IU/ml penicillin and 100 μg/ml streptomycin. Cultures were maintained at 37° C. in a humidified atmosphere of 5% CO2/95% air. C2C12 cells were seeded at 4,000 cells per well on 96-well plates. The next day cells were incubated with test peptides at 10 μM or staurosporine at concentrations between 100 nM and 5 nM using a final concentration of 0.1% DMSO and maintained at 37° C. in a humidified atmosphere of 5% CO2/95% air for 24 hours. Caspase 3/7 activity was determined using a Caspase-Glo 3/7 Assay kit according to the manufacturer's instructions. Luminescence for each sample well on the plate was measured using a Cytation 3 plate reader (BioTek, Winooski, Vt.). Activity was calculated relative to 0.1% DMSO control.

C2C12 cells [2] = assay: Cellular ROS Levels Induced by TBHP in C2C12 Cells (DCFDA); type: cell-based, mouse; conditions: peptides 10 μM, 18-20 hours, then TBHP 100 μM 1 hour, relative to TBHP control
Method: The protective or synergistic effect of the peptides on cellular levels of reactive oxygen species (ROS) induced by oxidative stress can be assessed using an assay of ROS in cultured cells such as mouse myoblasts exposed to a suitable oxidative stress. Peptides were initially prepared as 10 mM stock in DMSO, diluted to 1 mM in H2O, and added at a final concentration of 10 μM (0.1% DMSO). […] TBHP was used at final concentration of 100 μM. Sulforaphane at final concentration of 10 µM was used as a protective control against TBHP induced ROS production. […] C2C12 cells were grown in DMEM supplemented with 20% FBS with 100 IU/ml penicillin and 100 μg/ml streptomycin. […] C2C12 cells were seeded at 7,500 cells per well on 96-well plates. […] After 18-20 hours of incubation the cells were loaded with DCFDA for 45 min. TBHP at 100 μM was then added to the appropriate wells for 1 hour. ROS activity was determined using a DCFDA Cellular ROS Detection Assay kit (Abcam, Cambridge, Mass.) according to the manufacturer's instructions. Fluorescence in each sample well on the plate was measured using a Cytation 3 plate reader at Ex/Em=485/535 nm (BioTek, Winooski, Vt.). Activity was calculated relative to TBHP control. The relative standard deviation of the sulforaphane control was <20%. The ROS level produced by the sulforaphane control in the presence of TBHP was 52% of the TBHP control.

3T3-L1 mouse adipocytes = assay: Free Fatty Acid Levels in 3T3-L1 Mouse Adipocytes (Example 12, 10 μM); type: cell-based; conditions: peptides 10 μM, 20-22 hours then 3 hours with isoproterenol 1 nM, 3T3-L1 mouse adipocytes
Method: The effect of the peptides on fatty acid metabolism can be assessed using an assay of free fatty acid levels in cultured cells such as mouse adipocytes. Peptides were initially prepared as 10 mM stock in DMSO, diluted to 1 mM in H2O, and used at a final concentration of 10 μM (0.1% DMSO). […] After 20-22 hours, 1 nM isoproterenol was added to all wells except untreated controls and test peptides were replenished. Insulin at 100 nM was added to control wells. […] Free fatty acid concentrations in the media were determined using a Free Fatty Acid Assay kit (Zen-Bio) according to the manufacturer's instructions using a Cytation 3 plate reader at 540 nm (BioTek, Winooski, Vt.). Absorbance values were corrected for untreated background and expressed relative to isoproterenol treated cells. Treatment with isoproterenol (1 nM) alone was used as the free fatty acid level stimulatory control. The relative standard deviation of the isoproterenol control was <10%. […] Free fatty acid levels for insulin (100 nM) treatment were <5% of the isoproterenol control value.

C2C12 cells [3] = assay: ATP Levels in Cultured C2C12 Cells (CellTiter-Glo); type: cell-based, mouse; conditions: peptides 10 μM, 3 days with readdition every 24 hours, relative to 0.1% DMSO control
Method: The effect of the peptides on cellular metabolism can be assessed using an assay of ATP levels in cultured cells such as mouse myoblast cells. Peptides were initially prepared as 10 mM stock in DMSO, diluted to 1 mM in H2O, and used at a final concentration of 10 μM (0.1% DMSO). […] Lovastatin was prepared as 10 mM stock in 70% Ethanol and used at final concentration of 10 µM containing 0.1% DMSO. CellTiter-Glo® Assay kit was purchased from Promega (Madison, Wis.). […] C2C12 cells were grown in DMEM medium supplemented with 20% FBS with 100 IU/ml penicillin and 100 μg/ml streptomycin. […] C2C12 cells were seeded at 800 cells per well on 96-well plates. […] ATP levels were determined using a CellTiter-Glo Assay kit according to the manufacturer's instructions. Luminescence for each sample well on the plate was measured using a Cytation 3 plate reader (BioTek, Winooski, Vt.). Activity was calculated relative to 0.1% DMSO treated control. The relative standard deviation of the result for the 0.1% DMSO treated control was <5%. […] ATP levels for treatment with lovastatin (10 μM) were <50% of the 0.1% DMSO treated control value.

DIO mice = assay: Metabolic parameters in DIO mice, twice daily intraperitoneal, 10 days (Example 16); type: in vivo, mouse; conditions: 5 mg/kg, male DIO mice
Method: Male C57BL/6 mice were maintained on a high fat diet for 18 weeks to develop diet induced obesity. Animals were randomized to treatment groups based on blood glucose levels and body weight. The peptides of the invention were administered to groups of male DIO mice twice daily by intraperitoneal injection at a dose of 5 mg/kg/dose for 10 days (N=8 animals per treatment group). An additional group of male DIO mice (n=8) received vehicle (water) alone administered twice daily by intraperitoneal injection. Body weight, blood glucose levels and food intake were monitored. Body mass distribution (fat vs lean) was determined by quantitative whole body NMR prior to dosing and at the end of dosing.

C2C12 cells [4] = assay: Cell Proliferation in C2C12 Cells (Cyquant DNA dye); type: cell-based, mouse; conditions: peptides 10 μM, 72 hours with readdition every 24 hours, relative to 0.1% DMSO control
Method: The effect of the peptides on cell proliferation was assessed using a DNA dye binding assay in cultured cells such as mouse myoblast cells. Peptides were initially prepared as 10 mM stock in DMSO, diluted to 1 mM in H2O, and added at a final concentration of 10 μM (0.1% DMSO). Lovastatin was used as a growth arrest control at final concentration of […]. […] C2C12 cells were grown in DMEM supplemented with 20% FBS with 100 IU/ml penicillin and 100 μg/ml streptomycin. […] C2C12 cells were seeded at 800 cells per well on 96-well plates. […] Cell proliferation was determined using Cyquant Direct Nucleic Acid Stain (Thermo Fisher Scientific, Waltham, Mass.) according to the manufacturer's instructions. Fluorescence for each sample well on the plate was measured using a Cytation 3 plate reader at Ex/Em=495/535 nm (BioTek, Winooski, Vt.). Activity was calculated relative to 0.1% DMSO untreated control. The relative standard deviation for the lovastatin control was <27%. The cell proliferation for the lovastatin control was <25% of the value for untreated control.

Substance	Caspase 3/7 activity, Percent of Control Activity [1]	Cellular ROS levels induced by TBHP, Percent of Control (C2C12 cells [2])	Free fatty acid levels, Percent of Isoproterenol Control Activity (3T3-L1 mouse adipocytes)	ATP levels, Percent of Control Activity (C2C12 cells [3])	Difference from Vehicle Control: Decrease from Baseline in Blood Glucose (DIO mice)	Difference from Vehicle Control: Decrease from Baseline in Body Weight (DIO mice)	Difference from Vehicle Control: Decrease from Baseline in Fat Mass (DIO mice)	Cell proliferation, Percent of Control (C2C12 cells [4])
11 (RLPGSAILTNPVL[dA]WVWV) [compound 11]	98.7%	103.5%	47.2%	100.7%	4.76 mg/dL	−1.81%	-1.09 g	98.1%
15 (LPGS[dA]ILTNPVLGWVWV) [compound 15]	105.6%	101.5%	92.8%	101.6%	–	–	–	115.1%
16 (PGS[dA]ILTNPVLGWVWV) [compound 16]	99.7%	106.0%	97.2%	102.7%	–	–	–	100.3%
17 (GS[dA]ILTNPVLGWVWV) [compound 17]	97.1%	100.8%	88.5%	103.8%	–	–	–	110.0%
18 (S[dA]ILTNPVLGWVWV) [compound 18]	97.0%	100.7%	95.9%	103.2%	–	–	–	101.7%

— patent US20220324912A1, “THERAPEUTIC PEPTIDES” (COHBAR, INC., priority 2019, published 2022)
